Test results taken from a melting point compilation (Tetko et al.; mined from patent text by program, amines drawn as free bases though some values may be those of a salt).

Row | melting point [°C] | SMILES
1 | 208 to 209 | CC(C)CCOc1ccc2sc(C(=O)O)cc(=O)c2c1
2 | 272 to 273 | NC(=O)c1[nH]c2ccc(Cl)cc2c1S(=O)(=O)c1cccc(Cl)c1
3 | 135 to 160 | CCOCc1nc2c(N)nc3ccccc3c2n1CC1(N(C(N)=O)C(C)C)CCCCC1
4 | 202 to 203 | O=C(c1ccccc1)c1cnn2c(-c3cccnc3)ccnc12
5 | 108 to 110 | COC(=O)c1cc(O)cc(-c2ccccc2)c1
6 | 112 to 115 | CC1S/C(=N/N=C\c2ccc(-c3ncn(-c4ccc(OC(F)(F)F)cc4)n3)cc2)N(c2ccccc2C2CC2)C1=O (stereo not given)
7 | 92 to 93 | Cc1cccc2c1N(CCN(C(C)C)C(C)C)C(=O)C2=O
8 | 44 to 47 | CCCOc1ccc(C(=O)OC)cc1C(C)=O
9 | 216 to 218 | CNC(=O)c1ccccc1Nc1nc(Nc2ccc3c(c2)COC[C@@H]2CCCN32)ncc1Cl
10 | 96 to 102 | Cc1c(-c2ccc(O)cc2)n(Cc2ccc(OCCN(C(C)C)C(C)C)cc2)c2ccc(O)cc12
11 | 80 to 82 | COc1cc2c(Oc3cccc4[nH]ccc34)ncnc2cc1OCCCN1CCCCC1
12 | 169 to 171 | O=C(CCc1ccccn1)Nc1cc(N2CC(c3ccccc3)OC2=O)ccn1 (stereo not given)
13 | 213 to 215 | N#Cc1ccc2c(c1-c1c(C#N)ccc3c1OCO3)OCO2
14 | 75 to 80 | COC(=O)C(CNC(C)=O)C1CCC(c2ccccc2)CC1 (stereo not given)
15 | 216 to 218 | NC(=O)N(O)Cc1cc(-c2ccc(Cl)cc2)n(-c2ccc(S(N)(=O)=O)cc2)n1
16 | 228 to 230 | Cc1cccc(-n2c(-c3cc(-c4ccc(Cl)cc4)c(N4CCOCC4)s3)nc3ccccc3c2=O)c1
17 | 162 to 164 | C=CCn1cc(C(O)(c2ccc3c(cnn3C(=O)NCC)c2)C(F)(F)F)c2ccccc21 (stereo not given)
18 | 124 to 125 | N#Cc1cccc(C=Cc2ccc(Cl)c(Cl)c2)n1

Row | melting point [°C] | SMILES
19 | 288 to 289 | CC1(C)Oc2ccc(C#N)cc2[C@@H](NC2=C(Cl)C(=O)CC2)[C@@H]1O (relative stereo)
20 | 88 to 90 | O=C1CCCc2ccc(OCCCC(=O)N3CCOCC3)cc21
21 | 154 | CS(=O)(=O)c1ccc(-c2cc3n(c2-c2ccc(F)cc2)CCC3)cc1
22 | 119 to 121 | C=C(c1ccccc1)c1cc2cc(OC)ccc2[nH]1
23 | 112 to 115 | N#Cc1cnc2ccc(NC(=O)C#CCN3CCOCC3)cc2c1Nc1cccc(Br)c1
24 | 142 | CC1CCCCN1c1ccc([N+](=O)[O-])cc1C(=O)c1ccc(Cl)cc1 (stereo not given)
25 | 181 to 183 | CN(C)C(=O)Cn1c(-c2ccc(C(F)(F)F)cc2)nc2cccnc21
26 | 134 to 135 | FC(F)(F)c1cccc(N=c2ccn3ccccc3c2)c1
27 | 198 to 199 | Nc1nc(NCC=Cc2ccccc2)nc(-c2cc(Cl)ccc2Cl)n1
28 | 184 to 186 | CC(C)c1cc(-c2ccc3c(c2)OCO3)nc2[nH]nc(N)c12
29 | 130 to 132 | CCOC(=O)c1nc(NC)sc1C(=O)CBr
30 | 309 to 310 | O=C(O)c1c2c(nc3ccc(F)cc13)-c1ccc(-c3ccccc3)cc1CC2
31 | 143 to 144 | COC(=O)c1ccc2nc(C(F)(F)F)c(S(C)(=O)=O)nc2c1
32 | 219 to 221 | CC(=O)N1CCN(c2c(F)cc3c(=O)c(C(=O)O)cn(C4CC4)c3c2C)CC1C (stereo not given)
33 | 124 to 125 | CCOP(=O)(/C=C/c1nc(-c2ccccc2)oc1COc1ccc(OCc2nc(-c3ccccc3)oc2C)cc1)OCC
34 | 137 to 138 | c1ccc(CNc2nnc(Cc3ccncc3)c3ccccc23)cc1
35 | 85 to 86 | NC(=NO)c1ccccc1N
36 | 40 to 42 | CN1CCC[C@H](OCc2cc(C(F)(F)F)cc(C(F)(F)F)c2)[C@@H]1c1ccccc1

More lines, now with the values behind:

Row | SMILES | melting point [°C]
37 | O=C(Nc1ccc(Cl)cc1)OCCOc1ccc(Oc2ccccc2)cc1Cl | 155 to 156
38 | CN1CCN(c2cccc(Nc3ncc4ccc(-c5cn[nH]c5)n4n3)c2)CC1 | 195
39 | OC12CCCC1N=C(S)N2c1ccccn1 (stereo not given) | 126 to 127
40 | Nc1cccc2c1CNC2=O | 196 to 197
41 | O=C(NCc1cc(C(F)(F)F)cc(C(F)(F)F)c1)c1ccccc1-c1ccccc1 | 86 to 87
42 | CC(NC(=O)c1ccc([N+](=O)[O-])cc1)C(=O)O (stereo not given) | 199 to 200
43 | CCCCCCCCCCCCCCCCN[C@H](C(=O)N[C@H](C(=O)O)C(C)C)C(C)C | 120 to 123
44 | O=C1Cc2cc(C(=O)N3CCN(Cc4ccccc4)CC3)ccc2N1 | 151 to 153
45 | O=C1NC(=S)SC1=Cc1ccc2c(c1)N(OCc1ccc(C(F)(F)F)cc1)C(=O)CO2 | > 300
46 | CN(C)CCc1nnc2n1-c1ccc(Cl)cc1C(c1ccccc1Cl)=NC2 | 150 to 153
47 | C=C(C)C(=O)OCc1c(Br)c(Br)c(COC(=O)C(=C)C)c(Br)c1Br | 148 to 149
48 | Cc1cc(NC(=O)Nc2c(C)cccc2C)no1 | 200
49 | O=C(O)CCc1cc2cc(OC(F)(F)F)ccc2n1S(=O)(=O)c1ccccc1 | 138 to 146
50 | C=CCOC(=O)N[C@H]1CC(=O)O[C@H]1OCc1ccccc1 | 108 to 110
51 | CC(C)=CCC/C(C)=C/CSc1nc2cc(C(F)(F)F)ccc2[nH]1 | 106 to 108
52 | Cc1cc2nccn2nc1OCC(C)(C)CCS(N)(=O)=O | 161 to 162
53 | COC(=O)c1ccccc1S(=O)(=O)Cc1c(O[C@H](Cn2ccnc2)c2ccccc2)ccc2c1CCCC2=O | 203 to 205
54 | COc1ccc(-c2n[nH]c3c2c(=O)n(-c2ccccc2)c2ncccc32)cc1 | > 300
55 | N#Cc1c(Cl)cc(Cl)cc1[N+](=O)[O-] | 102 to 103
56 | CC(C)N1NC(c2ccc(F)cc2)=c2cc(Cl)ccc2=CS1(=O)=O | 147 to 151
57 | CC(Oc1cccc2c1C(=O)N(C1CCC(=O)NC1=O)C2=O)c1ccc2ccccc2c1 (stereo not given) | 174 to 176
58 | c1ccc(-c2cc(-n3ccc4ccccc43)c3ccccc3n2)cc1 | 100 to 102

Row | SMILES | melting point [°C]
59 | O=C1C2CCCC2=Nc2ccccc2N1Cc1cccc([N+](=O)[O-])c1 (stereo not given) | 124 to 126
60 | Nc1nc(-c2ccc([N+](=O)[O-])o2)ns1 | 168 to 170
61 | CC(C)(C)c1cc(C(=O)Nc2ccccc2NC(=O)NCC(c2ccccc2)c2ccccc2)cc(C(C)(C)C)c1O | 198 to 200
62 | O=C1Nc2ccccc2C1=Cc1cccs1 | 208 to 210
63 | COc1ccc(CN2CCC(c3cn(Cc4ccco4)c4ccccc34)CC2)cc1C(=O)O | 237 to 238
64 | CCOc1ccn2c(C)c(CCc3ccc4nc(N)oc4c3)nc2c1 | 207 to 208
65 | N#CCn1nnc2cc3c(cc2c1=O)OC1CCCN1C3=O (stereo not given) | 210 to 212
66 | COc1ccc(-c2cc(Cl)c3ccccc3n2)cc1C | 90 to 92
67 | CON=Cc1cc(-n2c(=O)cc(C(F)(F)F)[nH]c2=O)c(F)cc1Cl | 176 to 177
68 | O=S(=O)(NCc1ccccc1)c1cccc(-c2cc(-c3nc(-c4ccc(C(F)(F)F)cc4)cc(C(F)(F)F)n3)ccn2)c1 | 202
69 | O=C1CCn2c1ccc2C(=O)c1ccc(Cl)cc1 | 165 to 166
70 | COc1ccc2c(c1)CC(=O)NC2=O | 212 to 215
71 | CCCC(O)(C(=O)Nc1cc(Br)nc(OC)c1)C(C)C (stereo not given) | 116
72 | COc1ccc(Cl)cc1CCCC(=O)O | 79 to 81
73 | C[C@@H](O[Si](C)(C)C(C)(C)C)[C@@H]1C(=O)N[C@@H]1S(=O)(=O)c1ccc([N+](=O)[O-])cc1[N+](=O)[O-] | 148 to 149
74 | CC(Oc1ccc(Oc2ccc3cc(Cl)ccc3n2)cc1)C(=O)Nc1ccc(C(F)(F)F)cc1 (stereo not given) | 142 to 146
75 | CCCCCOC(=O)C1CC(Br)=NN1c1ncccc1Cl (stereo not given) | 39 to 42
76 | Fc1ccc(NC(=S)c2ccccn2)cc1Cn1ccnc1 | 154 to 156
77 | COc1ccc(C[C@H](NC(=O)OCc2ccccc2)C(=O)O)cc1 | 106 to 108
78 | COc1c(CBr)c(OC)c(CBr)c(OC)c1CBr | 126
79 | Nc1nc2c(s1)CCN(CCCCCc1ccccc1)CC2 | 102 to 105
80 | CCOC(=O)C1=C(C)NC(c2csc(C)n2)=NC1c1ccc(F)cc1Cl (stereo not given) | 123 to 125

Row | SMILES | melting point [°C]
81 | Cc1cc(SC(C)C)c(NC(=O)CCCCCSc2nc3ccccc3s2)c(SC(C)C)n1 | 84 to 86
82 | CC(=O)Nc1ccc(S(=O)(=O)Nc2ccc(S(=O)(=O)C=CC#N)cc2)cc1 | 204 to 205
83 | N#CC(C(=O)NC1CCC1)C(=O)C1CC1 (stereo not given) | 110 to 111
84 | Cc1nnc2nc(-c3ccccc3F)cnn12 | 227 to 229
85 | O=C1Nc2cccnc2N(CC#CCN2CCOCC2)c2ccccc21 | 168
86 | Cc1cnc(C(=O)O)c(-c2ccc(Cl)c(C(=O)NCC34CC5CC(CC(C5)C3)C4)c2)c1 | 125 to 130
87 | O=C(Nc1ccccc1)N1C[C@@H](P(c2ccccc2)c2ccccc2)[C@H](P(c2ccccc2)c2ccccc2)C1 | 165 to 167
88 | COc1cc(C=C(C(=O)NC2CCC(C)CC2)c2ccccc2)ccc1OC(C)=O (stereo not given) | 136 to 140
89 | O=C(O)C(=O)c1ccc(OCCOC2CCc3ccccc3C2)cc1 (stereo not given) | 119 to 120
90 | COC(=O)/C=C(/C#Cc1ccccc1)c1ccccc1 | 73 to 75
91 | CC(C)NCC(O)COc1ccc2c(c1)CCN(C=O)C2 (stereo not given) | 56.6 to 58
92 | O=c1[nH]c2cc(Cl)c(Cl)c(Cn3cncn3)c2[nH]c1=O | > 320
93 | CCOCC(O)COc1cccc2oc(-c3ccccc3)cc(=O)c12 (stereo not given) | 85 to 86.5
94 | CCOc1cn(C)cc(-c2cccc(C(F)(F)F)c2)c1=O | 131 to 133
95 | COC(=O)c1ccccc1S(=O)(=O)NC(=O)c1nc(OC)cc(OC)n1 | 163 to 165
96 | Cc1nc(N2CCN(Cc3ccccc3)C2=N)sc1C(=O)NCc1ccc(F)c(F)c1 | 140 to 142
97 | Cc1cc(-n2ccc(=O)[nH]c2=O)cc(Cl)c1Sc1ccc(Cl)cc1 | 150 to 160
98 | CN1NC(=O)CC1c1ccccc1 (stereo not given) | 160 to 161
99 | CC(C)Cn1c(=O)n(C)c(=O)c2c(I)n(Cc3cccc4ccccc34)cc21 | 140 to 142
100 | COCCOC(=O)NC(=O)CCCCCN=C=O | 77
